{
  "source": "patent US9782428B2",
  "about": "“Method for generation of broadly neutralizing anti-pathogen antibodies” (Northeastern University, priority 2013, dated 2017)",
  "key": {"[1]": {"test_system": "germinal center B cells", "experiment": "Flow cytometric analysis of germinal center B cells from immunized mice treated with CGS-21680 (Experiments 1 and 3)", "assay_type": "in vivo", "protocol": "All mice were sacrificed on day 6.\nAll mice were sacrificed on day 21.\nFlow cytometric analysis of germinal center B cells from Experiment 1 (gated as lymphocytes, B220+, Gl-7 positive, CD38 negative; FIGS. 10E and 10F) and Experiment 3 (B220 positive, Gl-7 hi, IgD-negative; FIG. 10D) was performed. The flow cytometric analysis was performed according to the protocol discussed in Example."}, "[2]": {"test_system": "resting B cells", "experiment": "In vitro class switch recombination IgM to IgG1 in resting B cells stimulated with anti-CD40 and IL-4", "assay_type": "cell-based, mice", "details": "four days in culture; for class switching of IgM to IgG1: gated on B220+, vs untreated B cells", "protocol": "Female C57 B/6 mice were sacrificed and spleens harvested and generated into single cell suspensions. Lymphocytes were isolated using Ficoll separation (GE Healthcare) and interface layer was collected after centrifugation (1000×g for 10 minutes). Cells were FC Blocked as described above and then stained with CD43 FITC (clone S7) and then washed and stained with anti-FITC microbeads (Miltenyi) at 4° C. for 30 minutes. Cells were then depleted using magnetic separation autoMACS deplete(s) program (Miltenyi). The depleted fraction was used for experiments as these consist of resting B cells.\nB cells plated in a 24 well plate at 200,000 cells pre well with IMDM media, as described in Example 3 (1 ml media/well). B cells were then stimulated using anti-CD40 antibody (2.5 μg/ml clone IC-10 eBiosciences) and recombinant mouse IL-4 (10 ng/ml, R&D). […] All stimulating reagents were added at the seeding of the culture on day 0 and no other drugs were added thereafter.\nAfter four days in culture, amount of class switch to IgG1 was determined by flow cytometric analysis by staining with anti-mouse IgM, IgG1, and B220. Plots are all gated on B220+ cells (FIG. 8A-8F)"}, "[3]": {"test_system": "Gs coupled protein receptor", "details": "dopamine at day 44 and day 62 plus inspiration of hyperoxic gas mixture; day 47 and day 65; vs untreated mice", "quoted_text": "12 male wild type C57 B/6 mice 10-12 weeks of age are immunized as described in Example 1. At day 21, the mice are given an immune boost of 1 μg NP-OVA with adjuvant via intraperitoneal injection. At day 42, the mice are given an immune challenge of 1 μg NP-OVA without adjuvant via tail vein injection. […] Samples at 5 days and 23 days post immune challenge (i.e., day 47 and day 65 of the assay) will be subjected to ELISA measurement for NIP-25."}, "[4]": {"details": "Experiment 1, 5 subcutaneous injections 1 mg/kg days 4-6, sacrificed day 6"}},
  "note": "Entries after “also recorded” stand apart in the source; their conditions may differ.",
  "data": [
    {"compound": "CCNC(=O)[C@H]1O[C@@H](n2cnc3c(N)nc(NCCc4ccc(CCC(=O)O)cc4)nc32)[C@H](O)[C@@H]1O", "note": "[CGS21680]", "values": [
      {"measurement": "amount of class switched NP-PE binding cells", "setting": "[1]; [4]", "result": "higher amount"},
      {"measurement": "proportion of class switched IgG1 germinal center B cells", "setting": "[1]; [4]", "result": "enhanced class switching"},
      {"measurement": "proportion of class switched IgG1 germinal center B cells", "setting": "[1]; Experiment 1, 5 subcutaneous injections 1 mg/kg days 4-6, sacrificed day 6, listed as CGS-21680", "result": "increased proportion"},
      {"measurement": "frequency of germinal center B cells", "setting": "[1]; Experiment 3, 1 mg/kg subcutaneous twice daily day 8-20, sacrificed day 21, compared to control", "result": "decrease"},
      {"measurement": "class switching of IgM to IgG1", "setting": "[2]; 10 μM", "result": "has class switching"}
    ]},
    {"compound": "CCNC(=O)[C@H]1O[C@@H](n2cnc3c(N)ncnc32)[C@H](O)[C@@H]1O", "note": "[NECA, N-ethylcarboxyamidoadenosine]", "values": [
      {"measurement": "class switching of IgM to IgG1, dependence on concentration", "setting": "[2]; 100 nM, 1 μM, 10 μM", "result": "class switching increases as the concentration of NECA increases"},
      {"measurement": "class switching of IgM to IgG1", "setting": "[2]; 100 nM", "result": "increases the class switching; also recorded: has class switching"},
      {"measurement": "class switching of IgM to IgG1", "setting": "[2]; 1 μM", "result": "has class switching"},
      {"measurement": "class switching of IgM to IgG1", "setting": "[2]; 10 μM", "result": "has class switching"}
    ]},
    {"compound": "NCCc1ccc(O)c(O)c1", "note": "[dopamine]", "values": [
      {"measurement": "levels of NIP-25", "setting": "[3]", "result": "higher levels"}
    ]}
  ]
}
